Source: US20190307783A1, “USE OF ANTIVIRALS TO INHIBIT PROTOZOAN VIRUSES” (priority 2016, published 2019)
Entries after “also recorded” stand apart in the source; their conditions may differ.

Columns and labels:
[1] = animal models; cited from earlier work
[2] = tested on: dsRNA LRV1 genome; test: Quantitative anti-dsRNA slot blots of LRV1 genome; assay type: cell-based, Leishmania RNA virus 1 in Leishmania guyanensis; conditions: LgyLRV1+
Procedure: RNA slot blot analysis was performed as described previously (36).

[3] = tested on: LbrLRV1; test: LRV1 inhibition in L. braziliensis strains bearing LRV1; assay type: cell-based, Leishmania RNA virus 1 in Leishmania braziliensis; conditions: Leishmania braziliensis
Procedure: (§1) For 2CMA, the EC50 was estimated to be ˜3 μM for LRV1 capsid inhibition, versus >100 μM for parasite growth (FIG. 11A), at least 30-fold selective. […] Several studies were carried out with L. braziliensis strains bearing LRV1 (12). The 2CMA EC50 for LbrLRV1 was similar to that seen with LgyLRV1 (˜3 μM); however, parasites were somewhat more susceptible to growth inhibition (EC50 50-100 μM). Because the available quantities of 7d2CMA were limiting and both compounds were similarly selective for L. guyanensis, we focused thereafter on 2CMA.
(§2) Most studies were performed using luciferase-expressing transfectants of L. guyanensis (MHOM/BR/78/M4147) described previously [LRV1^+ LgyM4147/SSU:IR2SAT-LUC(b)c3 and LRV^−LgyM4147/pX63HYG/SSU:IR2SAT-LUC(b)c4] (54); these lines are termed LgyLRV1^+ and LgyLRV1^−, respectively. Two strains of LRV1^+L. braziliensis were examined: LEM2780 (MHOM/BO/90/CS) and LEM3874 (MHOM/BO/99/IMT252 no. 3) (12). Parasites were grown in Schneider's media (Sigma Aldrich, St. Louis, Mo., USA) prepared according to the supplier's instructions with pH adjusted to 6.5 and supplemented with 0.76 mM hemin, 2 μg/mL biopterin, 50 U/mL penicillin, 50 μg/mL streptomycin, and 10% (vol/vol) heat-inactivated FBS. Cell concentrations were determined using a Coulter Counter ([…], Indianapolis, Ind., USA).

[4] = biological target: Lgy LRV1 RDRP (Leishmania RNA virus 1 - 4, UniProt Q02382); test: RDRP assay of purified virions, [α-32P]UTP incorporation; assay type: biochemical, Leishmania RNA virus 1 (Lgy strain M4147); conditions: concentrations up to 1000 μM; listed as 2CMA
Sequence of Lgy LRV1 RDRP (Q02382 whole entry): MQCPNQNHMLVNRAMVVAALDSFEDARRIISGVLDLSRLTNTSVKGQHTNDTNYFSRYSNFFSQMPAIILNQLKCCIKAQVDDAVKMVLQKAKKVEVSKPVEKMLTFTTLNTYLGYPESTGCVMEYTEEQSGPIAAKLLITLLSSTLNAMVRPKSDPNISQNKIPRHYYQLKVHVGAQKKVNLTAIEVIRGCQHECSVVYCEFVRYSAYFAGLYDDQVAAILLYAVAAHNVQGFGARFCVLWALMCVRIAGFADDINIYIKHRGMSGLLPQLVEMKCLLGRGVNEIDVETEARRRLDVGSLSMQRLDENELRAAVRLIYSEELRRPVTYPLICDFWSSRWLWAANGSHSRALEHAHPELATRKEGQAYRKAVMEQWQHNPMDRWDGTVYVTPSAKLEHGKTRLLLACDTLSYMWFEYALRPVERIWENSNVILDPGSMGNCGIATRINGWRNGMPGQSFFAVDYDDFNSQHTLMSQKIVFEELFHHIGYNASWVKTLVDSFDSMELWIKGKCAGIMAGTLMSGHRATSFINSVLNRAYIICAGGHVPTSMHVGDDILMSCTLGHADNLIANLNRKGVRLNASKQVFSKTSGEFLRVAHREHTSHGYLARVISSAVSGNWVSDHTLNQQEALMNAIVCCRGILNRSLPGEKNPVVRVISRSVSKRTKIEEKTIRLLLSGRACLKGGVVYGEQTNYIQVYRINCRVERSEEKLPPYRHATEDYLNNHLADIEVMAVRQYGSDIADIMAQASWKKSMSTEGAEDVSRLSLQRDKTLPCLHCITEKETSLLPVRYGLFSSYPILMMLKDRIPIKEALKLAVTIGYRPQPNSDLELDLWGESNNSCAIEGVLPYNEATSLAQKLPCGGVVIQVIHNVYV
Procedure: RDRP assays were carried out with LRV1 virions purified from Lgy strain M4147 by an established cesium chloride (CsCl) equilibrium ultracentrifugation procedure {Widmer, 1989; Widmer, 1990}. Following separation, virus particles were detected and quantified by their reactivity with an anti-capsid antibody (FIG. 21). We reproducibly observed three overlapping ‘peaks’, designated low-, medium-, and high-density (LD, MD and HD) in order of increasing density. […] The densities of the Lgy LRV1 LD, MD and HD peaks were 1.29, 1.36 and 1.41 g/mL, in good agreement with the densities of L-A virus particles bearing ssRNA- and dsRNA- (1.31 and 1.41 g/mL, respectively) {Esteban, 1986}. […]
To measure RDRP activity, purified virions were allowed to incorporate [α-^32P]UTP in the presence of the remaining nucleoside triphosphates for 1 hour, a time chosen to allow one round of transcription or replication of the viral genome {Widmer, 1990}. RNA was purified and separated by native gel electrophoresis, and the products were visualized and quantified. […]
RDRP activity of purified virions was measured using an [α-^32P]UTP incorporation assay described previously{Widmer, 1990}. […] The standards lane was excised and stained with ethidium bromide, while the radiolabeled products were detected by exposing an imaging plate for 24 hours and reading it with a FLA-5100 phosphoimager (Fujifilm, Tokyo, Japan). […]

[5] = tested on: L. guyanensis (LgyLRV1+); test: Drug-inhibition test: growth of LgyLRV1+ parasites; assay type: cell-based, Leishmania guyanensis
[6] = tested on: LRV1 (LgyLRV1 capsid levels); conditions: from Kuhlmann, 2017; cited from earlier work
[7] = tested on: L. braziliensis strains bearing LRV1; test: Growth inhibition of L. braziliensis strains bearing LRV1; assay type: cell-based; conditions: Leishmania braziliensis
Procedure: as §1, §2

In the case of C[C@@]1(O)[C@H](O)[C@@H](CO)O[C@H]1n1cnc2c(N)ncnc21 [2′C-methyadenosine, 2′-C-methyladenosine], the Serum half-life [1] is given as 18 min, the EC50 [2] is given as about 1 µM and the EC50 [3] is given as about 3 µM. The “Inhibition of RDRP activity, in words” value [4] was “did not measurably inhibit; also recorded: completely inactive”, the Population doubling time ([5]; L. guyanensis at 100 μM, untreated 6.4 hours) was 8.5 h and the activity at 100 µM ([5]; Leishmania guyanensis, 48 h, LgyLRV1+, tested at 100 μM, growth after 2 days, read-out: Percent control (density)) was 72%. The EC50 ([5]; Leishmania guyanensis, L. guyanensis, relative cellular growth rate, titration, read-out: EC50 for parasite growth) was over 100 µM, the inhibition at 100 µM ([5]; Leishmania guyanensis, tested at 100 μM, read-out: Inhibition of parasite density) was 30% and the “Density (cells/mL)” value ([5]; LgyLRV1+, tested at 100 μM, growth after 2 days) was 1.22E+7 cells/mL. For the same molecule, the “Concentration that eradicates / completely inhibits LRV1 replication” value [6] was 10 µM and the EC50 [7] was 50 to 100 µM.
